Measured values as given in ChEMBL document CHEMBL5625191, “A review of progress in o-aminobenzamide-based HDAC inhibitors with dual targeting capabilities for cancer therapy” (Eur J Med Chem, 2023).

Legend:
Jurkat = test: Antiproliferative activity against human Jurkat cells assessed as inhibition of cell growth incubated for 48 hrs by MTT assay; format: functional, cell-based
Histone deacetylase 2 [1] = target: T1, Histone deacetylase 2 (Homo sapiens, UniProt Q92769); test: Inhibition of HDAC2 in human HeLa nuclear extract using Boc-Lys(Ac)-AMC or Boc-Lys(Tfa)-AMC as substrate preincubated for 5 mins followed by substrate addition and measured after 30 mins by fluorescence assay; format: cell-free
T1 sequence (Q92769 whole entry): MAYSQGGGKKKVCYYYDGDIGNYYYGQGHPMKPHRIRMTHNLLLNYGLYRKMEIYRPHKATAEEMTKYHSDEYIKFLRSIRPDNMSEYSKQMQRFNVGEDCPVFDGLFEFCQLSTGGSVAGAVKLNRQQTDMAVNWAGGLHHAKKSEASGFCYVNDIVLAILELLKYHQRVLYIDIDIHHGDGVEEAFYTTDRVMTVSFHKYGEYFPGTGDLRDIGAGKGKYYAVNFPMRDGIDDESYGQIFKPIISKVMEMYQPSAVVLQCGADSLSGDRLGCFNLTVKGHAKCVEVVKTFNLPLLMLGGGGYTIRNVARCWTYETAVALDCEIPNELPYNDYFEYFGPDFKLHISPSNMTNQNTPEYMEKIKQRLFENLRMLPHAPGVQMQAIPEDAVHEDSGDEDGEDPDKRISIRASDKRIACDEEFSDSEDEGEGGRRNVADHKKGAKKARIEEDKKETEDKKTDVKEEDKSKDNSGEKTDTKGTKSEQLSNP

MOLT-4 = test: Antiproliferative activity against human MOLT-4 cells assessed as inhibition of cell growth incubated for 48 hrs by MTT assay; format: functional, cell-based; conditions: MOLT-4, 48 h
HEL = test: Antiproliferative activity against human HEL cells assessed as inhibition of cell growth incubated for 48 hrs by MTT assay; format: functional, cell-based
HCT-116 [2] = test: Antiproliferative activity against human HCT-116 cells assessed as inhibition of cell growth incubated for 48 hrs by MTT assay; format: functional, cell-based; conditions: HCT-116, 48 h
Histone deacetylase 1 [3] = target: T2, Histone deacetylase 1 (Homo sapiens, UniProt Q13547); test: Inhibition of HDAC1 in human HeLa nuclear extract using Boc-Lys(Ac)-AMC or Boc-Lys(Tfa)-AMC as substrate preincubated for 5 mins followed by substrate addition and measured after 30 mins by fluorescence assay; format: cell-free
T2 sequence (Q13547 whole entry): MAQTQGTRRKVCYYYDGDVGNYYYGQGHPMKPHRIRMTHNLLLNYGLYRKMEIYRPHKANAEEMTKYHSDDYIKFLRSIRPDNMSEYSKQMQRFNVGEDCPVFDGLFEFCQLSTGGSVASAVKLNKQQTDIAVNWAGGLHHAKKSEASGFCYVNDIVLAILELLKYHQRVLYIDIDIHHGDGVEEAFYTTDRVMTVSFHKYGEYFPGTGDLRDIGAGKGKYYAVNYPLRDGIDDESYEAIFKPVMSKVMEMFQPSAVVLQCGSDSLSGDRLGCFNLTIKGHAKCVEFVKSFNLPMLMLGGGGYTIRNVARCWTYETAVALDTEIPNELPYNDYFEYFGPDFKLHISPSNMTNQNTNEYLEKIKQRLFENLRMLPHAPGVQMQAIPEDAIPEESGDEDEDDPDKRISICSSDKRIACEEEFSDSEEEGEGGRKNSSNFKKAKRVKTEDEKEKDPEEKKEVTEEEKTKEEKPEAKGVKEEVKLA

Histone deacetylase 3 [4] = target: T3, Histone deacetylase 3 (Homo sapiens, UniProt O15379); test: Inhibition of HDAC3 in human HeLa nuclear extract using Boc-Lys(Ac)-AMC or Boc-Lys(Tfa)-AMC as substrate preincubated for 5 mins followed by substrate addition and measured after 30 mins by fluorescence assay; format: cell-free
T3 sequence (O15379 whole entry): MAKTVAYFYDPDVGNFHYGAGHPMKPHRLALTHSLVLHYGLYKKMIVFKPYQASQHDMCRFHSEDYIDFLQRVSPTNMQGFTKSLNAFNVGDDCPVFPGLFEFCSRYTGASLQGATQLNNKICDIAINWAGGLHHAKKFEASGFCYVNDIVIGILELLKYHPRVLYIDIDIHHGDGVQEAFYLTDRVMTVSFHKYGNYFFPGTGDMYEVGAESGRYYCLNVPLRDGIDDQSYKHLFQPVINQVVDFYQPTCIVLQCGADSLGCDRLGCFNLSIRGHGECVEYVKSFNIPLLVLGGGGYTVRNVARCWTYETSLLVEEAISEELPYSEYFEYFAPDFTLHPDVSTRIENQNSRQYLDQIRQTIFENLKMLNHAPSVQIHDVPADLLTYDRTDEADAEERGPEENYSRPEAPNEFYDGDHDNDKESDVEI

PC-3 = test: Antiproliferative activity against human PC-3 cells assessed as inhibition of cell growth incubated for 48 hrs by MTT assay; format: functional, cell-based; conditions: PC-3, 48 h
A549 [5] = test: Antiproliferative activity against human A549 cells assessed as inhibition of cell growth incubated for 48 hrs by MTT assay; format: functional, cell-based; conditions: A549, 48 h
HeLa [6] = test: Antiproliferative activity against human HeLa cells assessed as inhibition of cell growth incubated for 48 hrs by MTT assay; format: functional, cell-based
MCF7 [7] = test: Cytotoxicity against human MCF7 cells assessed as inhibition of cell growth; format: functional, cell-based
MGC-803 = test: Cytotoxicity against human MGC-803 cells assessed as inhibition of cell growth; format: functional, cell-based
HepG2 = test: Cytotoxicity against human HepG2 cells assessed as inhibition of cell growth; format: functional, cell-based
U-937 = test: Cytotoxicity against human U-937 cells assessed as inhibition of cell growth; format: functional, cell-based
[8] = target: Protein deacetylase HDAC6 (Homo sapiens, UniProt Q9UBN7); test: Inhibition of HDAC6 (unknown origin)
Chain of Protein deacetylase HDAC6 (Q9UBN7 whole entry): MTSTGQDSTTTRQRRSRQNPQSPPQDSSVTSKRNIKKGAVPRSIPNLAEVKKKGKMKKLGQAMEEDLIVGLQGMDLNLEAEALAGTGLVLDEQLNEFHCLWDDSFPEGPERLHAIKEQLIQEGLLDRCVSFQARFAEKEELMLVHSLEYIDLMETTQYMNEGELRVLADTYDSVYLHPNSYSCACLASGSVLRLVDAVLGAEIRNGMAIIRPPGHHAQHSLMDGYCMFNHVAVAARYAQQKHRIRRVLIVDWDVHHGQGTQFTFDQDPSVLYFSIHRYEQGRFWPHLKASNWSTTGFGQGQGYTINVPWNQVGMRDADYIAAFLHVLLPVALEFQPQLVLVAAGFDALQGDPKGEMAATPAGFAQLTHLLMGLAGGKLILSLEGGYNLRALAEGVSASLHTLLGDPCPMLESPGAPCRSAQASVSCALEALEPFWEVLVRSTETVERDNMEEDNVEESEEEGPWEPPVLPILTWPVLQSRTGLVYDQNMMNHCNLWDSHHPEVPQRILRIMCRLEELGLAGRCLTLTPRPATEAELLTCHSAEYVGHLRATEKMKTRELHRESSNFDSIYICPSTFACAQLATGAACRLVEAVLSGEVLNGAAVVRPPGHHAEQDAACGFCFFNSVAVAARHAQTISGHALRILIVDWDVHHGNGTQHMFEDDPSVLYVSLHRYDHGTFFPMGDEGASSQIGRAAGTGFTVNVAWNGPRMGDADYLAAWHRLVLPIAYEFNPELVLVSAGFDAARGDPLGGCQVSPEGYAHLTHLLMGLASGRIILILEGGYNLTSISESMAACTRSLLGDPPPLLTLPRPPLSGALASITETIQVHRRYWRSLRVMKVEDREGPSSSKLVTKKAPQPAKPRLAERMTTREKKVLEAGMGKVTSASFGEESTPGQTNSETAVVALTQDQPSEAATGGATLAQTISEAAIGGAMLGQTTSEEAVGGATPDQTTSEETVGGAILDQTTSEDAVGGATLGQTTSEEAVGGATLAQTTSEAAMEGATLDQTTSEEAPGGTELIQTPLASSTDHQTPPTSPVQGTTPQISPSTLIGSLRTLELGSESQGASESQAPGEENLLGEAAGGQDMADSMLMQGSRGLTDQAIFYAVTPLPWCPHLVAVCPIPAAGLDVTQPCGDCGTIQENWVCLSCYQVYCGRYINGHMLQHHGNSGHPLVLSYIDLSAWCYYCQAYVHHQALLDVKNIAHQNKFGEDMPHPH

Histone deacetylase 2 [9] = target: T1, Histone deacetylase 2; test: Inhibition of HDAC2 (unknown origin)
HeLa [10] = test: Cytotoxicity against human HeLa cells assessed as inhibition of cell growth; format: functional, cell-based
[11] = target: Bromodomain-containing protein 4 (Homo sapiens, UniProt O60885); test: Inhibition of BRD4 BD1 (unknown origin)
HCT-116 [12] = test: Antiproliferative activity against human HCT-116 cells assessed as inhibition of cell growth; format: functional, cell-based
Histone deacetylase 1 [13] = target: T2, Histone deacetylase 1; test: Inhibition of HDAC1 (unknown origin)
Histone deacetylase 2 [14] = target: T1, Histone deacetylase 2; test: Inhibition of full length C-terminal FLAG-tagged human recombinant HDAC2 (1 to 488 residues) expressed in Sf9 cells using fluorogenic Boc-Lys(Ac)-AMC as substrate incubated for 90 mins by Synergy H1 plate reader analysis
Histone deacetylase 1 [15] = target: T2, Histone deacetylase 1; test: Inhibition of full length C-terminal his6-tagged human recombinant HDAC1 (1 to 482 residues) expressed in Sf9 cells using fluorogenic Boc-Lys(Ac)-AMC as substrate incubated for 90 mins by Synergy H1 plate reader analysis
[16] = target: Macrophage migration inhibitory factor (Homo sapiens, UniProt P14174); test: Inhibition of MIF (unknown origin) tautomerase activity incubated for 10 mins by microplate reader analysis
Chain of Macrophage migration inhibitory factor (P14174 whole entry, the tested form may be a part): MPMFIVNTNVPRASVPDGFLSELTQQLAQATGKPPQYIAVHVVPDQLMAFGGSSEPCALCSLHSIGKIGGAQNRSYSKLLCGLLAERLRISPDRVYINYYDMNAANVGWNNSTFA

Histone deacetylase 3 [17] = target: T3, Histone deacetylase 3; test: Inhibition of C-terminl his-tagged human recombinant HDAC3 (1 to 428 residues) expressed in Sf9 cells using fluorogenic Boc-Lys(Ac)-AMC as substrate incubated for 90 mins by Synergy H1 plate reader analysis
MCF7 [18] = test: Antiproliferative activity against human MCF7 cells assessed as inhibition of cell growth incubated for 48 hrs by MTT assay; format: functional, cell-based; conditions: MCF7, 48 h
Histone deacetylase [19] = test: Inhibition of HDAC in human HeLa nuclear extract using Boc-Lys(Ac)-AMC or Boc-Lys(Tfa)-AMC as substrate preincubated for 5 mins followed by substrate addition and measured after 30 mins by fluorescence assay; format: cell-free
Ephrin type-A receptor 2 = Ephrin type-A receptor 2 (Homo sapiens, UniProt P29317); test: Inhibition of EphA2 (unknown origin) incubated for 30 mins by TR-FRET assay
Chain of Ephrin type-A receptor 2 (P29317 whole entry): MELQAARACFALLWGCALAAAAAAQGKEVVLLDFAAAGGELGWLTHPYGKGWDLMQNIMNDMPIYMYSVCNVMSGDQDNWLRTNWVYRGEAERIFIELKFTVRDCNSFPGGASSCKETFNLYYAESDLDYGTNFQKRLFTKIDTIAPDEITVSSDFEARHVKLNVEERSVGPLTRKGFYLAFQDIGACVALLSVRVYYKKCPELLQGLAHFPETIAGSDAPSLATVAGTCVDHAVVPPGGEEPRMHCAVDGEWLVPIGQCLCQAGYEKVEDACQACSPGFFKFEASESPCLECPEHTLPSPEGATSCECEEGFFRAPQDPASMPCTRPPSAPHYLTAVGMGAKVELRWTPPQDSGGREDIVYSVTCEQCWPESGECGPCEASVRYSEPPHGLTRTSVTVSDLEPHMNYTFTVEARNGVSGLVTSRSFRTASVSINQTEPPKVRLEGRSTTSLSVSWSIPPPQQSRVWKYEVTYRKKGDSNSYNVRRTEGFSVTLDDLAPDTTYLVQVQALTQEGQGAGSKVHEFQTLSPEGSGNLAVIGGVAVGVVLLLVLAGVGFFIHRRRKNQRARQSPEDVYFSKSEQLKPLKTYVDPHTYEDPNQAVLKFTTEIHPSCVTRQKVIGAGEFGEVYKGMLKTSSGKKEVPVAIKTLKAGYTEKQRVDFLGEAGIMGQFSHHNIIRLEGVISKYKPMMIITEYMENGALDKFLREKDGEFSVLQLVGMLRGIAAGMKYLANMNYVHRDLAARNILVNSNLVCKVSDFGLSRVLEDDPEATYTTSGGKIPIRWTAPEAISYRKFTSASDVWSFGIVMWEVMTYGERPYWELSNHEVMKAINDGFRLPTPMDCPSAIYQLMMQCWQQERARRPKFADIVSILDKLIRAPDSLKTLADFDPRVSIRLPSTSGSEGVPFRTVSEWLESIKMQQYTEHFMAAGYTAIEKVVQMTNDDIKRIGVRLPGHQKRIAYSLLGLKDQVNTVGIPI

[20] = Antiproliferative activity against human Bortezomib-resistant RPMI-8226 cells assessed as inhibition of cell growth incubated for 72 hrs by XTT assay; format: functional, cell-based; conditions: Bortezomib-resistant RPMI-8226, 72 h
Histone deacetylase [21] = test: Inhibition of HDAC (unknown origin); format: protein assay, Homo sapiens
RPMI-8226 = test: Antiproliferative activity against human RPMI-8226 cells assessed as inhibition of cell growth incubated for 72 hrs by XTT assay; format: functional, cell-based; conditions: RPMI-8226, 72 h
[22] = target: Histone deacetylase (Homo sapiens) (UniProt Q13547+O15379+Q9UBN7+Q92769+Q9UQL6+Q8WUI4+Q9BY41+Q96DB2+P56524+Q9UKV0+Q969S8); test: Inhibition of HDAC in human RPMI-8226 cells at 10 uM incubated for 8 hrs relative to control; format: cell-based
A549 [23] = test: Antiproliferative activity against human A549 cells assessed as inhibition of cell growth incubated for 48 hrs by CCK-8 assay; format: functional, cell-based; conditions: A549, 48 h
CT26 = test: Antitumor activity against mouse CT26 cells xenografted in mouse assessed as reduction in tumor volume; format: functional; set-up: scale not given: the % may be the effect or the level left

SMILES: Nc1ccccc1NC(=O)CCCCCCCOc1no[n+]([O-])c1S(=O)(=O)c1ccccc1
- IC50 (Jurkat): 470 nM
- IC50 (Histone deacetylase 2 [1]): 1200 nM
- IC50 (MOLT-4): 720 nM
- IC50 (HEL): 420 nM
- IC50 (HCT-116 [2]): 790 nM
- IC50 (Histone deacetylase 1 [3]): 660 nM
- IC50 (Histone deacetylase 3 [4]): 500 nM
- IC50 (PC-3): 1920 nM
- IC50 (A549 [5]): 1550 nM
- IC50 (HeLa [6]): 1560 nM

SMILES: COc1cc2c(cc1OCc1ccc(C(=O)Nc3ccccc3N)cc1)CC[C@@H]1[C@H]3CC[C@@H](O)[C@]3(C)CC[C@@H]21
- IC50 (MCF7 [7]): 370 nM
- IC50 (MGC-803): 370 nM
- IC50 (HepG2): 370 nM
- IC50 (U-937): 371 nM
- IC50 [8]: 120 nM
- IC50 (Histone deacetylase 2 [9]): 60 nM
- IC50 (HeLa [10]): 370 nM

SMILES: Cc1sc2c(c1C)C(c1ccc(Cl)cc1)=N[C@@H](CC(=O)Nc1ccc(C(=O)Nc3ccccc3N)cc1)c1nnc(C)n1-2
- IC50 [11]: 729 nM

SMILES: CN1c2ccc(NCc3ccc(C(=O)Nc4ccccc4N)cc3)cc2C(=O)N2CCc3c([nH]c4ccc(O)cc34)[C@H]21
- IC50 (HCT-116 [12]): 2150 nM
- IC50 (Histone deacetylase 1 [13]): 400 nM
- IC50 (Histone deacetylase 2 [9]): 2140 nM

SMILES: Nc1ccccc1NC(=O)c1ccc(NC(=O)Cc2ccc(N3Cc4ccc(O)cc4OC3=O)cc2)cc1
- IC50 (Histone deacetylase 2 [14]): 1100 nM
- IC50 (Histone deacetylase 1 [15]): 200 nM
- IC50 [16]: 180 nM
- IC50 (Histone deacetylase 3 [17]): 600 nM

SMILES: COc1ccc(C(=O)Nc2ccc(NC(=O)Nc3ccccc3N)cc2)cc1
- IC50 (HCT-116 [2]): 5290 nM
- IC50 (MCF7 [18]): 7420 nM
- IC50 (Histone deacetylase [19]): 1520 nM
- IC50 (Ephrin type-A receptor 2): 570 nM

SMILES: CC(C)C[C@@H](NC(=O)[C@H](Cc1ccccc1)NC(=O)c1cnc(C(=O)Nc2ccccc2N)cn1)B1OC2CC3CC(C3(C)C)[C@@]2(C)O1 (stereo partly drawn)
- IC50 [20]: 158 nM
- IC50 (Histone deacetylase [21]): 23.6 nM
- IC50 (RPMI-8226): 9.5 nM
- inhibition [22]: 33%

SMILES: Cn1cc(-c2ccc(S(=O)(=O)n3ccc(/C=C/C(=O)Nc4ccccc4N)c3)cc2)cn1 [DOMATINOSTAT]
- IC50 (A549 [23]): 7.8 nM
- Activity (CT26): 53%

SMILES: Nc1ccccc1NC(=O)CCCCCOc1no[n+]([O-])c1S(=O)(=O)c1ccccc1
- IC50 (Jurkat): 770 nM
- IC50 (Histone deacetylase 2 [1]): 1140 nM
- IC50 (MOLT-4): 540 nM
- IC50 (HEL): 410 nM
- IC50 (HCT-116 [2]): 770 nM
- IC50 (Histone deacetylase 1 [3]): 470 nM
- IC50 (Histone deacetylase 3 [4]): 560 nM
- IC50 (PC-3): 2500 nM
- IC50 (A549 [5]): 980 nM
- IC50 (HeLa [6]): 1500 nM

SMILES: CN1c2ccc(NCc3ccc(C(=O)Nc4ccccc4N)cc3)cc2C(=O)N2CCc3c([nH]c4ccccc34)[C@H]21
- IC50 (HCT-116 [12]): 2760 nM
- IC50 (Histone deacetylase 1 [13]): 1510 nM
- IC50 (Histone deacetylase 2 [9]): 6250 nM
